Measurements published in US10336761B2, “TGFβ receptor antagonist” (BRISTOL-MYERS SQUIBB COMPANY, priority 2015, dated 2019).

Target: HIS-TGFβR1 T204D (Homo sapiens (Human), UniProt P36897, T204D)
Assay: HTRF probe-displacement assay, HIS-TGFβR1 T204D
Format: binding
Settings: 1 hour at room temperature

HIS-TGFβR1 T204D, sequence (P36897 34-503 T204D): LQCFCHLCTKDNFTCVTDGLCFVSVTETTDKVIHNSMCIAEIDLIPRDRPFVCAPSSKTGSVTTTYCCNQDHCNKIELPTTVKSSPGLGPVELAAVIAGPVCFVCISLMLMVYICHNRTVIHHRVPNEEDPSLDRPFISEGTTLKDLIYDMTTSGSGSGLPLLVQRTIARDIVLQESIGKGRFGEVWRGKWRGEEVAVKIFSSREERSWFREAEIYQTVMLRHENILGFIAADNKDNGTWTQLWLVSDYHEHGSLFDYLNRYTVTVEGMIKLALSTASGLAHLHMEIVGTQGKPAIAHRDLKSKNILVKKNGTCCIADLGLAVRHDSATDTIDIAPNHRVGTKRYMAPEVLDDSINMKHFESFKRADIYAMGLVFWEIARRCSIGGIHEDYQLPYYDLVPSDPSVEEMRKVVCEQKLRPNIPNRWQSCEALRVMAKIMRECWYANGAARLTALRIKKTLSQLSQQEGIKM

Row | SMILES | IC50
1 | CC(=O)Nc1cc(Nc2nc(-c3ccccn3)nn3ccc(CN4CCN(CCO)CC4)c23)ccn1 [Example 250, N-{4-[(5-{[4-(2-hydroxyethyl)piperazin-1-yl]methyl}-2-(pyridin-2-yl)pyrrolo[2,1-f][1,2,4]triazin-4-yl)amino]pyridin-2-yl}acetamide] | 0.0012 µM
2 | Cc1cccc(-c2nc(Nc3ccncc3OCCCN3CCOCC3)c3cccn3n2)n1 [Example 222, N-[2-(6-methylpyridin-2-yl)pyrrolo[2,1-f][1,2,4]triazin-4-yl]-3-[3-(morpholin-4-yl)propoxy]pyridin-4-amine] | 0.067 µM
3 | COc1cccc(-c2nc(Nc3ccncc3COCCCN3CCOCC3)c3cccn3n2)n1 [Example 38, N-[2-(6-methoxypyridin-2-yl)pyrrolo[2,1-f][1,2,4]triazin-4-yl]-3-{[3-(morpholin-4-yl)propoxy]methyl}pyridin-4-amine] | 0.68 µM
4 | COc1cccc(-c2nc(Nc3ccncc3F)c3c(C(O)CNCCN4CCCCC4)ccn3n2)n1 (centres unmarked) [Example 130, 1-{4-[(3-fluoropyridin-4-yl)amino]-2-(6-methoxypyridin-2-yl)pyrrolo[2,1-f][1,2,4]triazin-5-yl}-2-{[2-(piperidin-1-yl)ethyl]amino}ethan-1-ol] | 0.54 µM
5 | CC(C)(O)CNCc1ccn2nc(-c3ccc(F)cn3)nc(Nc3ccncc3F)c12 [Example 235, 1-({[2-(5-fluoropyridin-2-yl)-4-[(3-fluoropyridin-4-yl)amino]pyrrolo[2,1-f][1,2,4]triazin-5-yl]methyl}amino)-2-methylpropan-2-ol] | < 0.00025 µM
6 | Cc1cccc(-c2nc(Nc3ccncc3C(=O)NCC(C)(C)O)c3cccn3n2)n1 [Example 156, N-(2-hydroxy-2-methylpropyl)-4-{[2-(6-methylpyridin-2-yl)pyrrolo[2,1-f][1,2,4]triazin-4-yl]amino}pyridine-3-carboxamide] | 0.05 µM
7 | CC(=O)Nc1cc(Nc2nc(-c3ccc(F)c(C)n3)nn3cccc23)c(F)cn1 [Example 333, N-(5-fluoro-4-{[2-(5-fluoro-6-methylpyridin-2-yl)pyrrolo[2,1-f][1,2,4]triazin-4-yl]amino}pyridin-2-yl)acetamide] | 0.0036 µM
8 | COc1cccc(-c2nc(Nc3ccncc3F)c3cc(NC(C)=O)cn3n2)n1 [Example 104, N-{4-[(3-fluoropyridin-4-yl)amino]-2-(6-methoxypyridin-2-yl)pyrrolo[2,1-f][1,2,4]triazin-6-yl}acetamide] | 0.086 µM
9 | O=C(CN1CCCC1)Nc1cc(Nc2nc(-c3cccc(C(F)F)n3)nn3cccc23)ccn1 [Example 33, N-[4-({2-[6-(difluoromethyl)pyridin-2-yl]pyrrolo[2,1-f][1,2,4]triazin-4-yl}amino)pyridin-2-yl]-2-(pyrrolidin-1-yl)acetamide] | 0.0009 µM
10 | Fc1cnccc1Nc1nc(-c2cccc(C(F)(F)F)n2)nn2cccc12 [Example 84, 3-fluoro-N-{2-[6-(trifluoromethyl)pyridin-2-yl]pyrrolo[2,1-f][1,2,4]triazin-4-yl}pyridin-4-amine] | 0.0037 µM
11 | O=C(NCCN1CCCC1)c1cnccc1Nc1nc(-c2cccc(C(F)(F)F)n2)nn2cccc12 [Example 170, N-[2-(pyrrolidin-1-yl)ethyl]-4-({2-[6-(trifluoromethyl)pyridin-2-yl]pyrrolo[2,1-f][1,2,4]triazin-4-yl}amino)pyridine-3-carboxamide] | 0.017 µM
12 | C=CCOc1cnccc1Nc1nc(-c2ccccn2)nn2cccc12 [Example 79, 3-(prop-2-en-1-yloxy)-N-[2-(pyridin-2-yl)pyrrolo[2,1-f][1,2,4]triazin-4-yl]pyridin-4-amine] | 0.013 µM
13 | O=C(N[C@H]1CCC[C@@H]1O)c1cnccc1Nc1nc(-c2cccc(C(F)F)n2)nn2cccc12 [Example 199, 4-({2-[6-(difluoromethyl)pyridin-2-yl]pyrrolo[2,1-f][1,2,4]triazin-4-yl}amino)-N-[(1S,2S)-2-hydroxycyclopentyl]pyridine-3-carboxamide] | 0.061 µM
14 | Cc1cncc(-c2nc(Nc3ccncc3F)c3cccn3n2)n1 [Example 71, 3-fluoro-N-[2-(6-methylpyrazin-2-yl)pyrrolo[2,1-f][1,2,4]triazin-4-yl]pyridin-4-amine] | 0.096 µM
15 | COc1cccc(-c2nc(Nc3ccncc3F)c3c(OCCN4CCCC4)ccn3n2)n1 [Example 45, 3-fluoro-N-[2-(6-methoxypyridin-2-yl)-5-[2-(pyrrolidin-1-yl)ethoxy]pyrrolo[2,1-f][1,2,4]triazin-4-yl]pyridin-4-amine] | 4.9 µM
16 | COc1cccc(-c2nc(Nc3ccncc3F)c3cc(CCN4CCN(C)CC4)cn3n2)n1 [Example 44, 3-fluoro-N-[2-(6-methoxypyridin-2-yl)-6-[2-(4-methylpiperazin-1-yl)ethyl]pyrrolo[2,1-f][1,2,4]triazin-4-yl]pyridin-4-amine] | 1.7 µM
17 | O=C(NCCOCCO)c1cnccc1Nc1nc(-c2cccc(C(F)F)n2)nn2cccc12 [Example 174, 4-({2-[6-(difluoromethyl)pyridin-2-yl]pyrrolo[2,1-f][1,2,4]triazin-4-yl}amino)-N-[2-(2-hydroxyethoxy)ethyl]pyridine-3-carboxamide] | 0.023 µM
18 | O[C@@H]1CCN(Cc2ccn3nc(-c4ccccn4)nc(Nc4ccncc4F)c23)C1 [Example 233, (3R)-1-({4-[(3-fluoropyridin-4-yl)amino]-2-(pyridin-2-yl)pyrrolo[2,1-f][1,2,4]triazin-5-yl}methyl)pyrrolidin-3-ol] | 0.00085 µM

Row | SMILES | IC50
19 | CC(C)NC(=O)c1cnccc1Nc1nc(-c2cccc(C(F)F)n2)nn2cccc12 [Example 194, 4-({2-[6-(difluoromethyl)pyridin-2-yl]pyrrolo[2,1-f][1,2,4]triazin-4-yl}amino)-N-(propan-2-yl)pyridine-3-carboxamide] | 0.11 µM
20 | COc1cccc(-c2nc(Nc3ccncc3)c3c(Cl)ccn3n2)n1 [Example 91, N-[5-chloro-2-(6-methoxypyridin-2-yl)pyrrolo[2,1-f][1,2,4]triazin-4-yl]pyridin-4-amine] | 0.049 µM
21 | Fc1cnccc1Nc1nc(-c2ccccn2)nn2ccc(CNCC(F)(F)F)c12 [Example 268, 3-fluoro-N-[2-(pyridin-2-yl)-5-{[(2,2,2-trifluoroethyl)amino]methyl}pyrrolo[2,1-f][1,2,4]triazin-4-yl]pyridin-4-amine] | 0.0011 µM
22 | Fc1cnccc1Nc1nc(-c2ccccn2)nn2ccc(CNCCN3CCNCC3)c12 [Example 269, 3-fluoro-N-[5-({[2-(piperazin-1-yl)ethyl]amino}methyl)-2-(pyridin-2-yl)pyrrolo[2,1-f][1,2,4]triazin-4-yl]pyridin-4-amine] | 0.0042 µM
23 | Cc1cccc(-c2nc(Nc3ccncc3C(=O)NC3COC3)c3cccn3n2)n1 [Example 165, 4-{[2-(6-methylpyridin-2-yl)pyrrolo[2,1-f][1,2,4]triazin-4-yl]amino}-N-(oxetan-3-yl)pyridine-3-carboxamide] | 0.014 µM
24 | Cc1cccc(-c2nc(Nc3ccncc3C(=O)NCCN3CCS(=O)(=O)CC3)c3cccn3n2)n1 [Example 153, N-[2-(1,1-dioxo-1,4-thiomorpholin-4-yl)ethyl]-4-{[2-(6-methylpyridin-2-yl)pyrrolo[2,1-f][1,2,4]triazin-4-yl]amino}pyridine-3-carboxamide] | 0.022 µM
25 | CC(C)(O)CNC(=O)c1cc(Nc2nc(-c3cccc(C(F)(F)F)n3)nn3cccc23)ccn1 [Example 324, N-(2-hydroxy-2-methylpropyl)-4-({2-[6-(trifluoromethyl)pyridin-2-yl]pyrrolo[2,1-f][1,2,4]triazin-4-yl}amino)pyridine-2-carboxamide] | 4.4 µM
26 | Cc1cccc(-c2nc(Nc3ccncn3)c3cccn3n2)n1 [Example 64, N-[2-(6-methylpyridin-2-yl)pyrrolo[2,1-f][1,2,4]triazin-4-yl]pyrimidin-4-amine] | 0.0022 µM
27 | Fc1cc(Nc2nc(-c3cccc(C(F)(F)F)n3)nn3cccc23)ccn1 [Example 256, 2-fluoro-N-{2-[6-(trifluoromethyl)pyridin-2-yl]pyrrolo[2,1-f][1,2,4]triazin-4-yl}pyridin-4-amine] | 0.25 µM
28 | Cc1cccc(-c2nc(Nc3ccncc3F)c3ccc(C(=O)O)n3n2)n1 [Example 52, 4-[(3-fluoropyridin-4-yl)amino]-2-(6-methylpyridin-2-yl)pyrrolo[2,1-f][1,2,4]triazine-7-carboxylic acid] | 0.035 µM
29 | CCNC(=O)Nc1cc2c(Nc3ccncc3F)nc(-c3cccc(OC)n3)nn2c1 [Example 72, 3-ethyl-1-{4-[(3-fluoropyridin-4-yl)amino]-2-(6-methoxypyridin-2-yl)pyrrolo[2,1-f][1,2,4]triazin-6-yl}urea] | 0.37 µM
30 | Fc1cnccc1Nc1nc(-c2ccccn2)nn2ccc(CNC3CNC3)c12 [Example 311, N-(5-{[(azetidin-3-yl)amino]methyl}-2-(pyridin-2-yl)pyrrolo[2,1-f][1,2,4]triazin-4-yl)-3-fluoropyridin-4-amine] | 0.013 µM
31 | Fc1cnccc1Nc1nc(-c2ncccc2F)nn2cccc12 [Example 260, 3-fluoro-N-[2-(3-fluoropyridin-2-yl)pyrrolo[2,1-f][1,2,4]triazin-4-yl]pyridin-4-amine] | 0.0032 µM
32 | Fc1cnccc1Nc1nc(-c2ccccn2)nn2ccc(CNc3ccc4[nH]nnc4c3)c12 [Example 306, N-({4-[(3-fluoropyridin-4-yl)amino]-2-(pyridin-2-yl)pyrrolo[2,1-f][1,2,4]triazin-5-yl}methyl)-1H-1,2,3-benzotriazol-5-amine] | 0.0053 µM
33 | CCc1cc2c(Nc3ccncc3F)nc(-c3cccc(OC)n3)nn2c1 [Example 42, N-[6-ethyl-2-(6-methoxypyridin-2-yl)pyrrolo[2,1-f][1,2,4]triazin-4-yl]-3-fluoropyridin-4-amine] | 0.16 µM
34 | O=C(NCc1ccccn1)c1cnccc1Nc1nc(-c2cccc(C(F)F)n2)nn2cccc12 [Example 181, 4-({2-[6-(difluoromethyl)pyridin-2-yl]pyrrolo[2,1-f][1,2,4]triazin-4-yl}amino)-N-(pyridin-2-ylmethyl)pyridine-3-carboxamide] | 0.032 µM
35 | CCOC(=O)c1cc2c(Nc3ccncc3)nc(-c3cccc(C)n3)nn2c1 [Example 216, Ethyl 2-(6-methylpyridin-2-yl)-4-[(pyridin-4-yl)amino]pyrrolo[2,1-f][1,2,4]triazine-6-carboxylate] | 0.033 µM
